# Assay results: US7795456B2, “Insecticidal N-substituted sulfoximines” (Dow AgroSciences LLC, priority 2004, dated 2010)
# Experiments:
# [1] = test system: yellow fever mosquito (Aedes aegypti) larvae; assay: whole plant or invertebrate; assay type: in vivo; conditions: 72 h, read-out: YFM 26: % control at 26 ppm against yellow fever mosquito in submerge tests
# [2] = test system: corn earworm (Helicoverpa zea); conditions: 50 μg/cm2, second-instar larvae, 5 days
# [3] = test system: beet armyworm (Spodoptera exigua); conditions: 50 μg/cm2, second-instar larvae, 5 days
# [4] = test system: fruit fly (Drosophila melanogaster); conditions: for FF SYM: % showing intoxicated symptoms at 25 μg/cm2 against fruit fly in dietary tests: 25 μg/cm2, 4 h; for FF 25: % mortality at 25 μg/cm2 against fruit fly in dietary tests: 25 μg/cm2, 48 h
# [5] = test system: beet armyworm (Spodoptera exigua); assay: Insecticidal test for beet armyworm in injection assays; conditions: 1 h, read-out: BAW SYM: % showing intoxicated symptoms at 10 μg/larva against beet armyworm in injection tests
# [6] = test system: cotton aphid (Aphis gossypii); assay: Insecticidal test for cotton aphid, foliar spray on squash; conditions: for pest or weed control at 50 ppm / pest or weed control at 200 ppm: Aphis gossypii, foliar, 72 h; for pest or weed control at 50 ppm: read-out: CA 50: % control at 50 ppm against cotton aphid in foliar spray tests; for pest or weed control at 200 ppm: read-out: CA 200: % control at 200 ppm against cotton aphid in foliar spray tests; for % Control at ppm, against cotton aphid: 0.049: 0.049 ppm; for % Control at ppm, against cotton aphid: 0.195: 0.195 ppm; for % Control at ppm, against cotton aphid: 0.78: 0.78 ppm; for % Control at ppm, against cotton aphid: 3.12: 3.12 ppm; for % Control at ppm, against cotton aphid: 0.012: 0.012 ppm
# [7] = test system: Colorado potato beetle (Leptinotarsa decemlineata); assay: Insecticidal test for Colorado potato beetle, foliar spray on tomato; assay type: in vivo; conditions: for % Control at ppm, against Colorado potato beetle: 3.13: 3.13 ppm; for % Control at ppm, against Colorado potato beetle: 12.5: 12.5 ppm; for CPB 50: % control at 50 ppm against Colorado potato beetle in foliar spray tests: 5 days, Corrected % Control; for CPB 50: % control at 50 ppm against Colorado potato beetle in foliar spray tests / % Control at ppm, against Colorado potato beetle: 50: 50 ppm
# Description: Insecticidal Test for Colorado Potato Beetle (Leptinotarsa decemlineata).
# Tomato seedlings at the growth stage of three or four expanding leaves were used. […] Treated plants were held in the laboratory for approximately 3 h to allow drying before the upper portion (with two or three leaves) of a plant was cut and placed in a 10×2.5-cm petri dish containing approximately 10 mL of solidified 1% agar at the bottom. Five 2nd or 3rd instar larvae were placed on the treated plant tissue, and the petri dishes were covered and held in an incubator at 25° C. At 5 days following treatment, insecticidal activity was evaluated by counting the number of live larvae in each dish.
# [8] = test system: sweet potato whitefly (Bemisia tabaci); assay: Insecticidal test for sweet potato whitefly, foliar spray on cotton; conditions: for pest or weed control at 200 ppm: Bemisia tabaci, in Gossypium hirsutum, foliar, read-out: SPW 200: % control at 200 ppm against sweet potato whitefly in foliar spray tests; for % Control at ppm, against sweet potato whitefly: 0.4-0.78: 0.4-0.78 ppm; for % Control at ppm, against sweet potato whitefly: 0.4-0.78 / % Control at ppm, against sweet potato whitefly: 2-3.13 / % Control at ppm, against sweet potato whitefly: 10-12.5 / % Control at ppm, against sweet potato whitefly: 50: rundown assay; for % Control at ppm, against sweet potato whitefly: 2-3.13: 2-3.13 ppm; for % Control at ppm, against sweet potato whitefly: 10-12.5: 10-12.5 ppm; for % Control at ppm, against sweet potato whitefly: 50: 50 ppm
# [9] = test system: green peach aphid (Myzus persicae); assay: Insecticidal test for green peach aphid, foliar spray on cabbage seedlings; conditions: rundown assay, 3 days; for % Control at ppm, against green peach aphid: 0.049: 0.049 ppm; for % Control at ppm, against green peach aphid: 0.195: 0.195 ppm; for % Control at ppm, against green peach aphid: 0.78: 0.78 ppm; for % Control at ppm, against green peach aphid: 3.12: 3.12 ppm; for % Control at ppm, against green peach aphid: 0.012: 0.012 ppm
Compound,pest or weed control at 26 ppm [1],CEW 50: % mortality at 50 μg/cm2 against corn earworm in dietary tests [2],BAW 50: % mortality at 50 μg/cm2 against beet armyworm in dietary tests [3],FF SYM: % showing intoxicated symptoms at 25 μg/cm2 against fruit fly in dietary tests [4],FF 25: % mortality at 25 μg/cm2 against fruit fly in dietary tests [4],pest or weed control at 0.01 mg [5],pest or weed control at 50 ppm [6],pest or weed control at 200 ppm [6],CPB 50: % control at 50 ppm against Colorado potato beetle in foliar spray tests [7],"% Control at ppm, against cotton aphid: 0.049 ([6]; rundown assay)","% Control at ppm, against cotton aphid: 0.195 ([6]; rundown assay)","% Control at ppm, against cotton aphid: 0.78 ([6]; rundown assay)","% Control at ppm, against cotton aphid: 3.12 ([6]; rundown assay)",pest or weed control at 200 ppm [8],"% Control at ppm, against green peach aphid: 0.049 [9]","% Control at ppm, against green peach aphid: 0.195 [9]","% Control at ppm, against green peach aphid: 0.78 [9]","% Control at ppm, against green peach aphid: 3.12 [9]","% Control at ppm, against sweet potato whitefly: 0.4-0.78 [8]","% Control at ppm, against sweet potato whitefly: 2-3.13 [8]",also measured
CCC(c1ccc(Cl)nc1)S(C)(=O)=NC#N (stereo not shown) [Compound 26],90 to 100%,G (Inactive),G (Inactive),A (90-100),A (90-100),< 50%,90 to 100%,90 to 100%,,,,,,,,,,,,,
O=[N+]([O-])N=[S@@]1(=O)CCCC1Cc1ccc(Cl)nc1 (stereo partly shown) [Compound 41],90 to 100%,G (Inactive),G (Inactive),,F (Less than 50),,90 to 100%,90 to 100%,A (90-100),C (70-79),A (90-100),A (90-100),A (90-100),90 to 100%,F (Less than 50),F (Less than 50),E (50-59),D (60-69),,,"% Control at ppm, against Colorado potato beetle: 0.78 ([7]; 0.78 ppm, rundown assay): F (Less than 50); % Control at ppm, against Colorado potato beetle: 3.13 ([7]; rundown assay): F (Less than 50); % Control at ppm, against Colorado potato beetle: 12.5 ([7]; rundown assay): D (60-69); % Control at ppm, against Colorado potato beetle: 50 ([7]; rundown assay): A (90-100); % Control at ppm, against cotton aphid: 12.5 ([6]; 12.5 ppm, rundown assay): A (90-100); % Control at ppm, against cotton aphid: 50 ([6]; 50 ppm, rundown assay): A (90-100); % Control at ppm, against green peach aphid: 12.5 ([9]; 12.5 ppm): A (90-100); % Control at ppm, against green peach aphid: 50 ([9]; 50 ppm): A (90-100)"
O=[N+]([O-])N=S1(=O)CCCC1Cc1ccc(Cl)nc1 (stereo not shown) [Compound 35],80 to 89%,G (Inactive),G (Inactive),D (60-69),F (Less than 50),< 50%,90 to 100%,90 to 100%,B (80-89),,,,,90 to 100%,,,,,,,
C[C@H](c1ccc(Cl)nc1)[S@](C)(=O)=NC#N [Compound 28],90 to 100%,G (Inactive),G (Inactive),A (90-100),A (90-100),60 to 69%,90 to 100%,90 to 100%,,A (90-100),A (90-100),A (90-100),A (90-100),90 to 100%,F (Less than 50),B (80-89),A (90-100),A (90-100),A (90-100),A (90-100),"% Control at ppm, against cotton aphid: 0.012 ([6]; rundown assay): A (90-100); % Control at ppm, against sweet potato whitefly: 10-12.5 [8]: A (90-100); % Control at ppm, against sweet potato whitefly: 50 [8]: A (90-100); % Control at ppm, against green peach aphid: 0.012 [9]: F (Less than 50)"
"CC(C)(c1ccc(Cl)nc1)S(C)(=O)=NC#N (stereo not shown) [Compound 9, [1-(6-chloropyridin-3-yl)-1-methylethyl](methyl)oxido-λ^4-sulfanylidenecyanamide]",90 to 100%,G (Inactive),G (Inactive),A (90-100),C (70-79),< 50%,90 to 100%,90 to 100%,,,,,,,,,,,,,
"CC(c1ccc(Cl)nc1)S(C)(=O)=NC#N (stereo not shown) [Compound 8, [1-(6-chloropyridin-3-yl)ethyl](methyl)oxido-λ^4-sulfanylidenecyanamide]",90 to 100%,G (Inactive),G (Inactive),A (90-100),A (90-100),50 to 59%,90 to 100%,90 to 100%,A (90-100),,,,,90 to 100%,,,,,A (90-100),A (90-100),"% Control at ppm, against Colorado potato beetle: 3.13 ([7]; rundown assay): D (60-69); % Control at ppm, against Colorado potato beetle: 12.5 ([7]; rundown assay): A (90-100); % Control at ppm, against Colorado potato beetle: 50 ([7]; rundown assay): A (90-100); % Control at ppm, against sweet potato whitefly: 10-12.5 [8]: A (90-100); % Control at ppm, against sweet potato whitefly: 50 [8]: A (90-100)"
"N#CN=S1(=O)CCCCC1Cc1ccc(Cl)nc1 (stereo not shown) [Compound 5, 2-[(6-chloropyridin-3-yl)methyl]-1-oxidohexahydro-1λ^4-thiopyran-1-ylidenecyanamide]",50 to 59%,G (Inactive),G (Inactive),,G (Inactive),50 to 59%,90 to 100%,90 to 100%,,,,,,,,,,,,,
CC(c1ccc(Cl)nc1)[S@](C)(=O)=NC#N (stereo partly shown) [Compound 29],90 to 100%,G (Inactive),G (Inactive),A (90-100),A (90-100),90 to 100%,90 to 100%,90 to 100%,,A (90-100),A (90-100),A (90-100),A (90-100),90 to 100%,D (60-69),A (90-100),A (90-100),A (90-100),A (90-100),A (90-100),"% Control at ppm, against cotton aphid: 0.012 ([6]; rundown assay): A (90-100); % Control at ppm, against sweet potato whitefly: 10-12.5 [8]: A (90-100); % Control at ppm, against sweet potato whitefly: 50 [8]: A (90-100); % Control at ppm, against green peach aphid: 0.012 [9]: F (Less than 50)"
CS(=O)(=NC#N)C(Br)c1ccc(Cl)nc1 (stereo not shown) [Compound 24],90 to 100%,G (Inactive),G (Inactive),F (Less than 50),A (90-100),< 50%,90 to 100%,90 to 100%,,,,,,,,,,,,,
CS(=O)(=NC#N)C(Cl)c1ccc(Cl)nc1 (stereo not shown) [Compound 23],90 to 100%,G (Inactive),G (Inactive),A (90-100),A (90-100),< 50%,90 to 100%,90 to 100%,,,,,,,,,,,,,
